Measurements taken from patent US20240067632A1, “WEE1 Degrading Compounds and Uses Thereof” (Bristol-Myers Squibb Company, priority 2022, published 2024).
Like-named read-outs stand apart in the source and are kept apart here.

Columns and labels:
[1] = molecular target: T1, WEE1 (Homo sapiens, UniProt P30291+Q96SW2); assay: WEE1-ePL degradation assay (LentiX-WEE1-ePL-GSPT1-ND cells, InCELL Hunter luminescence, 4 h); format: cell-based; details: 293T-LentiX WEE1-ePL cells; for DC50: read-out: 293T-LentiX WEE1-ePL Degradation 4 hr (EC50)
T1 construct: C-terminal ePL-tagged (DiscoverX, Fremont, CA) full-length WEE1 expression construct; expressed in transfected cells; host or cells: LentiX-HEK293T (Invitrogen), lentiviral transduction; co-expressing GSPT1-GN (G576N, lacking the first 158 amino acids)
Summary of the method: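 Luminescent readout (InCELL Hunter, 30 min RT) of WEE1-ePL levels in transduced HEK293T cells after 4 h compound exposure at 37 °C. Dosing: 10 points, 3-fold steps, top 1 uM or 10 uM. EC50 from four-parameter logistic fit; Ymax set by DMSO.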

[2] = system: MKN45 cells; assay: MKN45 cell proliferation assay (Cell-Titer-Glo, 120 h); format: cell-based; details: for EC50: Homo sapiens, MKN-45, 120 h, Cell-Titer-Glo, read-out: MKN45 Cell Prolif. 120 hr (EC50); for MKN45 Cell Prolif. 120 hr (Ymin-Obs): minimal percent of DMSO control observed in the concentrations tested
Description: MKN45 cells were obtained from Celgene internal cell banks and cultured in RPMI complete media (RPMI-1640, 1× Penicillin/Streptomycin, 1× glutamine, 1× Sodium Pyruvate, Non-essential Amino Acids, 10% Fetal Bovine serum, all component from Thermo-Fisher). Compounds were dispensed into 384-well plates using an HP DE300 compound printer in triplicate with 8 compounds on each plate. For each compound, a 10-point dose response was printed at half-log dilutions starting at either 1 uM or 10 uM. The DMSO concentration was kept constant for a final assay concentration of 0.1% per well assuming 50 ul final media volume. Compound plates were sealed and frozen at −20 C until use.
For each assay batch, compound plates were thawed and allowed to reach room temperature, and cells were seeded at 400 cells per well in 50 ul complete RPMI media. After 120 hours of incubation at 37 C and 5% CO2, cells were lysed by addition of 25 μL of Cell-Titer-Glo Reagent (Promega Corporation, Madison, WI), as per manufacturer's instructions, protected from light, shaken for 45 minutes, and total luminescence read by a Perkin Elmer Envision plate reader. Total luminescence signal is linearly correlated with cell number remaining in the well.
Luminescence data was processed per plate by subtracting reagent-only “blank” well luminescence from all measured values and calculating a percent of DMSO control value for each treatment well. Then, to determine the half-maximal effective concentration (EC50) values for cell growth inhibition, a four parameter logistic model was fit to the data for each DMSO-normalized compound: Sigmoidal Dose-Response Model: (FIT=(A+((B−A)/1+((C/x)^D)))) where C is the inflection point (EC50), D is the Hill slope, and A and B are the low and high limits of the fit respectively. The lower limit of the fit (value A) is referred to as Ymin-calculated. The minimal percent of DMSO control that is observed in the concentrations tested for each compound is labeled as “Ymin-obs”, and was recorded and reported in the tables. Sigmoidal fit curves were processed and evaluated using Activity Base (IDBS, Alameda, CA).

[3] = lower limit of the fit (0 = luciferase inhibitor, Ymax = DMSO control)
[4] = lower limit of the fit (Ymin=0 luciferase inhibitor, Ymax DMSO control)

O=C1CC[C@H](N2Cc3cc(O[C@H]4CCN(Cc5ccc6nc(C7CCOCC7)ccc6c5F)C4)ccc3C2=O)C(=O)N1 [(3S)-3-(5-{[(3S)-1-{[5-fluoro-2-(oxan-4-yl)quinolin-6-yl]methyl}pyrrolidin-3-yl]oxy}-1-oxo-2,3-dihydro-1H-isoindol-2-yl)piperidine-2,6-dione]
293T-LentiX WEE1-ePL Degradation 4 hr (Ymin) [1, 3]: 34.42 | DC50 [1]: 0.306 nM | EC50 ([2]; growth inhibition): 2.1 nM | MKN45 Cell Prolif. 120 hr (Ymin-Obs) [2]: 12.14

O=C1CCC(N2Cc3cc(O[C@H]4CCN(Cc5ccc6nc(C7CCOCC7)ccc6c5F)C4)ccc3C2=O)C(=O)N1 (stereo partly drawn) [3-(5-{[(3S)-1-{[5-fluoro-2-(oxan-4-yl)quinolin-6-yl]methyl}pyrrolidin-3-yl]oxy}-1-oxo-2,3-dihydro-1H-isoindol-2-yl)piperidine-2,6-dione]
293T-LentiX WEE1-ePL Degradation 4 hr (Ymin) [1, 3]: 32 | DC50 [1]: 1.33 nM | EC50 ([2]; growth inhibition): 1.29 nM | MKN45 Cell Prolif. 120 hr (Ymin-Obs) [2]: 10.02

O=C1CC[C@H](N2Cc3cc(O[C@H]4CCN(Cc5cc(F)c6nc([C@H]7CCOC7)ccc6c5)C4)ccc3C2=O)C(=O)N1 [(3S)-3-(5-{[(3S)-1-({8-fluoro-2-[(3R)-oxolan-3-yl]quinolin-6-yl}methyl)pyrrolidin-3-yl]oxy}-1-oxo-2,3-dihydro-1H-isoindol-2-yl)piperidine-2,6-dione]
293T-LentiX WEE1-ePL Degradation 4 hr (Ymin) [1, 4]: 34.39 | DC50 [1]: 1.34 nM | EC50 [2]: 1.02 nM | MKN45 Cell Prolif. 120 hr (Ymin-Obs) [2]: 9.528

O=C1CC[C@H](N2Cc3cc(O[C@H]4CCN(Cc5cc(C6CC6)c6nc(C7CCOCC7)ccc6c5)C4)ccc3C2=O)C(=O)N1 [(3S)-3-(5-{[(3S)-1-{[8-cyclopropyl-2-(oxan-4-yl)quinolin-6-yl]methyl}pyrrolidin-3-yl]oxy}-1-oxo-2,3-dihydro-1H-isoindol-2-yl)piperidine-2,6-dione]
293T-LentiX WEE1-ePL Degradation 4 hr (Ymin) [1, 4]: 54.54 | DC50 [1]: 2.58 nM | EC50 [2]: 0.16 nM | MKN45 Cell Prolif. 120 hr (Ymin-Obs) [2]: 3.047

O=C1CCC(N2Cc3cc(O[C@H]4CCN(Cc5ccc6nc(N7CCC7)ccc6c5)C4)ccc3C2=O)C(=O)N1 (stereo partly drawn) [3-(5-{[(3S)-1-{[2-(azetidin-1-yl)quinolin-6-yl]methyl}pyrrolidin-3-yl]oxy}-1-oxo-2,3-dihydro-1H-isoindol-2-yl)piperidine-2,6-dione]
293T-LentiX WEE1-ePL Degradation 4 hr (Ymin) [1, 3]: 37 | DC50 [1]: 3.01 nM | EC50 ([2]; growth inhibition): 6.71 nM | MKN45 Cell Prolif. 120 hr (Ymin-Obs) [2]: 10.91

C[C@@H]1c2cc(O[C@H]3CCN(Cc4ccc5nc(C6CCOCC6)ccc5c4)C3)ccc2C(=O)N1[C@H]1CCC(=O)NC1=O [(3S)-3-[(3R)-3-methyl-5-{[(3S)-1-{[2-(oxan-4-yl)quinolin-6-yl]methyl}pyrrolidin-3-yl]oxy}-1-oxo-2,3-dihydro-1H-isoindol-2-yl]piperidine-2,6-dione]
293T-LentiX WEE1-ePL Degradation 4 hr (Ymin) [1, 4]: 42.32 | DC50 [1]: 2.67 nM | EC50 [2]: 17.8 nM | MKN45 Cell Prolif. 120 hr (Ymin-Obs) [2]: 20.63

CO[C@@H]1CCC[C@H](c2ccc3cc(CN4CC[C@H](Oc5ccc6c(c5)CN(C5CCC(=O)NC5=O)C6=O)C4)ccc3n2)C1 (stereo partly drawn) [3-(5-{[(3S)-1-({2-[(1S,3R)-3-methoxycyclohexyl]quinolin-6-yl}methyl)pyrrolidin-3-yl]oxy}-1-oxo-2,3-dihydro-1H-isoindol-2-yl)piperidine-2,6-dione]
293T-LentiX WEE1-ePL Degradation 4 hr (Ymin) [1, 3]: 32 | DC50 [1]: 28.7 nM | EC50 ([2]; growth inhibition): 16.5 nM | MKN45 Cell Prolif. 120 hr (Ymin-Obs) [2]: 9.143

O=C1CCC(N2Cc3cc(O[C@H]4CCN(Cc5ccc6c(c5)OC(=O)CN6)C4)ccc3C2=O)C(=O)N1 (stereo partly drawn) [3-(1-oxo-5-{[(3S)-1-[(2-oxo-3,4-dihydro-2H-1,4-benzoxazin-7-yl)methyl]pyrrolidin-3-yl]oxy}-2,3-dihydro-1H-isoindol-2-yl)piperidine-2,6-dione]
293T-LentiX WEE1-ePL Degradation 4 hr (Ymin) [1, 3]: 80 | EC50 ([2]; growth inhibition): > 10000 nM | MKN45 Cell Prolif. 120 hr (Ymin-Obs) [2]: 90.28

C[C@@H]1CC(c2ccc3cc(CN4CC[C@H](Oc5ccc6c(c5)CN(C5CCC(=O)NC5=O)C6=O)C4)ccc3n2)C[C@H](C)O1 (stereo partly drawn) [3-(5-{[(3S)-1-({2-[(2R,6S)-2,6-dimethyloxan-4-yl]quinolin-6-yl}methyl)pyrrolidin-3-yl]oxy}-1-oxo-2,3-dihydro-1H-isoindol-2-yl)piperidine-2,6-dione]
293T-LentiX WEE1-ePL Degradation 4 hr (Ymin) [1, 3]: 30.42 | DC50 [1]: 11.7 nM | EC50 ([2]; growth inhibition): 10.4 nM | MKN45 Cell Prolif. 120 hr (Ymin-Obs) [2]: 14.48

O=C1CCC(N2Cc3cc(O[C@H]4CCN(Cc5ccc6nc(C7COC7)ccc6c5)C4)ccc3C2=O)C(=O)N1 (stereo partly drawn) [3-(5-{[(3S)-1-{[2-(oxetan-3-yl)quinolin-6-yl]methyl}pyrrolidin-3-yl]oxy}-1-oxo-2,3-dihydro-1H-isoindol-2-yl)piperidine-2,6-dione]
293T-LentiX WEE1-ePL Degradation 4 hr (Ymin) [1, 3]: 33 | DC50 [1]: 3.79 nM | EC50 ([2]; growth inhibition): 11.2 nM | MKN45 Cell Prolif. 120 hr (Ymin-Obs) [2]: 10.08

O=C1CCC(N2Cc3cc(O[C@H]4CCN(Cc5ccc6ncc(C(F)(F)F)cc6c5)C4)ccc3C2=O)C(=O)N1 (stereo partly drawn) [3-(1-oxo-5-{[(3S)-1-{[3-(trifluoromethyl)quinolin-6-yl]methyl}pyrrolidin-3-yl]oxy}-2,3-dihydro-1H-isoindol-2-yl)piperidine-2,6-dione]
293T-LentiX WEE1-ePL Degradation 4 hr (Ymin) [1, 3]: 32 | DC50 [1]: 2.85 nM | EC50 ([2]; growth inhibition): 15.9 nM | MKN45 Cell Prolif. 120 hr (Ymin-Obs) [2]: 11.23

O=C1CCC(N2Cc3cc(O[C@H]4CCN(Cc5ccc6ccncc6c5)C4)ccc3C2=O)C(=O)N1 (stereo partly drawn) [3-(5-{[(3S)-1-[(isoquinolin-7-yl)methyl]pyrrolidin-3-yl]oxy}-1-oxo-2,3-dihydro-1H-isoindol-2-yl)piperidine-2,6-dione]
293T-LentiX WEE1-ePL Degradation 4 hr (Ymin) [1, 3]: 46 | DC50 [1]: 21 nM | EC50 ([2]; growth inhibition): 290 nM | MKN45 Cell Prolif. 120 hr (Ymin-Obs) [2]: 54.45

O=C1CCC(N2Cc3cc(O[C@H]4CCN(Cc5ccc6nc(C7CCOCC7)ccc6c5)C4)c(F)cc3C2=O)C(=O)N1 (stereo partly drawn) [3-(6-fluoro-5-{[(3S)-1-{[2-(oxan-4-yl)quinolin-6-yl]methyl}pyrrolidin-3-yl]oxy}-1-oxo-2,3-dihydro-1H-isoindol-2-yl)piperidine-2,6-dione]
293T-LentiX WEE1-ePL Degradation 4 hr (Ymin) [1, 4]: 30.27 | DC50 [1]: 3 nM | EC50 [2]: 7.69 nM | MKN45 Cell Prolif. 120 hr (Ymin-Obs) [2]: 15.44

CNc1ncc2cc(CN3CC[C@H](Oc4ccc5c(c4)CN(C4CCC(=O)NC4=O)C5=O)C3)ccc2n1 (stereo partly drawn) [3-(5-{[(3S)-1-{[2-(methylamino)quinazolin-6-yl]methyl}pyrrolidin-3-yl]oxy}-1-oxo-2,3-dihydro-1H-isoindol-2-yl)piperidine-2,6-dione]
293T-LentiX WEE1-ePL Degradation 4 hr (Ymin) [1, 3]: 41 | DC50 [1]: 44.8 nM | EC50 ([2]; growth inhibition): 234 nM | MKN45 Cell Prolif. 120 hr (Ymin-Obs) [2]: 22.48

O=C1CCC(N2Cc3cc(O[C@@H]4CN(Cc5ccc6nc([C@H]7CCOC7)ccc6c5)C[C@H]4F)ccc3C2=O)C(=O)N1 (stereo partly drawn) [3-(5-{[(3R,4R)-4-fluoro-1-({2-[(3R)-oxolan-3-yl]quinolin-6-yl}methyl)pyrrolidin-3-yl]oxy}-1-oxo-2,3-dihydro-1H-isoindol-2-yl)piperidine-2,6-dione]
293T-LentiX WEE1-ePL Degradation 4 hr (Ymin) [1, 4]: 34.71 | DC50 [1]: 8.43 nM | EC50 [2]: 18.7 nM | MKN45 Cell Prolif. 120 hr (Ymin-Obs) [2]: 20.39

O=C1CC[C@H](N2Cc3cc(O[C@H]4CCN(Cc5ccc6nc(N7CCCC7=O)ccc6c5)C4)ccc3C2=O)C(=O)N1 [(3S)-3-(1-oxo-5-{[(3S)-1-{[2-(2-oxopyrrolidin-1-yl)quinolin-6-yl]methyl}pyrrolidin-3-yl]oxy}-2,3-dihydro-1H-isoindol-2-yl)piperidine-2,6-dione]
293T-LentiX WEE1-ePL Degradation 4 hr (Ymin) [1, 3]: 40 | DC50 [1]: 1.51 nM | EC50 ([2]; growth inhibition): 2.82 nM | MKN45 Cell Prolif. 120 hr (Ymin-Obs) [2]: 8.56

Cc1cc(CN2CC[C@H](Oc3ccc4c(c3)CN(C3CCC(=O)NC3=O)C4=O)C2)ncc1OCC1CCOCC1 (stereo partly drawn) [3-(5-{[(3S)-1-({4-methyl-5-[(oxan-4-yl)methoxy]pyridin-2-yl}methyl)pyrrolidin-3-yl]oxy}-1-oxo-2,3-dihydro-1H-isoindol-2-yl)piperidine-2,6-dione]
293T-LentiX WEE1-ePL Degradation 4 hr (Ymin) [1, 3]: 42 | DC50 [1]: 9.71 nM | EC50 ([2]; growth inhibition): 44.9 nM | MKN45 Cell Prolif. 120 hr (Ymin-Obs) [2]: 16.9
